Measurements: article PMC5540273, “Progress towards a public chemogenomic set for protein kinases and a call for contributions” (PLoS ONE, 2017)

Key:
Experiment in all cases: KINOMEscan competition binding
DCAMKL1 = molecular target: T1, DCAMKL1 (Homo sapiens, UniProt O15075); conditions: read-out: %Inh DCAMKL1
T1 sequence (O15075 1-740): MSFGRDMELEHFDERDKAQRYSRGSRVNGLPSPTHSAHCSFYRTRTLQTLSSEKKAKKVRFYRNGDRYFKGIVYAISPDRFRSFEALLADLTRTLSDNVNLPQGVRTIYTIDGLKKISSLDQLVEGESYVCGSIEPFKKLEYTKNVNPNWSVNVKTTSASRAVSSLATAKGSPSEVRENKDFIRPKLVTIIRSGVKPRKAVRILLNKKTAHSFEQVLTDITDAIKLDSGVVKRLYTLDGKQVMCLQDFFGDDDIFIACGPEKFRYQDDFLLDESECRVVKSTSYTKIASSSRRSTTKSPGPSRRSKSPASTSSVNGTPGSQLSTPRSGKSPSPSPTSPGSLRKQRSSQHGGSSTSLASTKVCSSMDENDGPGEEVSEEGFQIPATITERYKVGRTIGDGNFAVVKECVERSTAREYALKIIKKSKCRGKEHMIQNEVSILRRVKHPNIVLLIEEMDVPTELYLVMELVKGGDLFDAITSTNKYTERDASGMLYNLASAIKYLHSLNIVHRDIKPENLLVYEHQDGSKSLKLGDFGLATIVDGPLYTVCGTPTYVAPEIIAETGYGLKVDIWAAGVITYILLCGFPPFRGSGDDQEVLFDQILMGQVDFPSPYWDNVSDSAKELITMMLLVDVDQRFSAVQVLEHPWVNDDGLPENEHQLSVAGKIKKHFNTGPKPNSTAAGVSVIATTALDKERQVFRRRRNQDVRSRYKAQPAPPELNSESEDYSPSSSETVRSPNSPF

EPHA4 = EPHA4 (Homo sapiens, UniProt P54764); conditions: read-out: %Inh EPHA4
Chain of EPHA4 (P54764 20-986): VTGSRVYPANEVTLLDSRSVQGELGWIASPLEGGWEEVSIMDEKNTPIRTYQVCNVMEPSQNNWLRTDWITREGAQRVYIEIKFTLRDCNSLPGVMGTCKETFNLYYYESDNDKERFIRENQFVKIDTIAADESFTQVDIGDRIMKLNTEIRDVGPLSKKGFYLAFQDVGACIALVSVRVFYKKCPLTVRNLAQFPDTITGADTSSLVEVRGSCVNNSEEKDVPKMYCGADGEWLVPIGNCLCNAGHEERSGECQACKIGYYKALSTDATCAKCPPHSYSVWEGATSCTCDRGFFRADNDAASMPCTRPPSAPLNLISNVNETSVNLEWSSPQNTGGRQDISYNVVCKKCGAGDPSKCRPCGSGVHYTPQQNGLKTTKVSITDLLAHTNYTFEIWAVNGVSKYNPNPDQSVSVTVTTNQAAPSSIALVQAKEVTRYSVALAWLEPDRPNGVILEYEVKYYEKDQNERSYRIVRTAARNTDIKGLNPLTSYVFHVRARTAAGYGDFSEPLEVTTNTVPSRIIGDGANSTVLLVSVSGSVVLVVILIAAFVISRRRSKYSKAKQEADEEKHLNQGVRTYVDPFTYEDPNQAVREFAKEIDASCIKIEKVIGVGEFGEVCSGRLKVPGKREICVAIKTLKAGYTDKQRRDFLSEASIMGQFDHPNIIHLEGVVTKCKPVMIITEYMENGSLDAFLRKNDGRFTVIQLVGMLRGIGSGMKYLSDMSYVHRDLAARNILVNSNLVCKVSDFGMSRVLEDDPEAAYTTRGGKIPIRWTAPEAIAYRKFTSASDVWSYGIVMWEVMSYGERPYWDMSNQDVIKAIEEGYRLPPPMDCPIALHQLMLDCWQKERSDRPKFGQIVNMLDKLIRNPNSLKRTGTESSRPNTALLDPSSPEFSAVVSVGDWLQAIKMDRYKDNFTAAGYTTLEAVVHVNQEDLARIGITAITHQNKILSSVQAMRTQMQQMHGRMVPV

ABL1-phosphorylated = ABL1-phosphorylated (Homo sapiens, UniProt P00519); conditions: read-out: %Inh ABL1-phosphorylated
CSF1R-autoinhibited = molecular target: T2, CSF1R-autoinhibited (Homo sapiens, UniProt P07333); conditions: read-out: %Inh CSF1R-autoinhibited
T2 sequence (P07333 539-972 limits assumed): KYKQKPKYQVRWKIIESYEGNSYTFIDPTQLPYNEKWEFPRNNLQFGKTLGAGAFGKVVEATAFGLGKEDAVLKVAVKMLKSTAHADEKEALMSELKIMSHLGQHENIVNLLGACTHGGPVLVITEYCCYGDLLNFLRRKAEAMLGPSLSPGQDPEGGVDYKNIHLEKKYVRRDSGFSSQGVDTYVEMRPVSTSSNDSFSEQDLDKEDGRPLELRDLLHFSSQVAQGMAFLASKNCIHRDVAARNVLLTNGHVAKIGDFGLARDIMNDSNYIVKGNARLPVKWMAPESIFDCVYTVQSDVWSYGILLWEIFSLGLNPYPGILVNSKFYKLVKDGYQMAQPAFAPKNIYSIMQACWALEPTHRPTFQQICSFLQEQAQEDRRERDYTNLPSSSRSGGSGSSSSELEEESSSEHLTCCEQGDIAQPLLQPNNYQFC

CDK3 = CDK3 (Homo sapiens, UniProt Q00526); conditions: read-out: %Inh CDK3
Chain of CDK3 (Q00526 whole entry): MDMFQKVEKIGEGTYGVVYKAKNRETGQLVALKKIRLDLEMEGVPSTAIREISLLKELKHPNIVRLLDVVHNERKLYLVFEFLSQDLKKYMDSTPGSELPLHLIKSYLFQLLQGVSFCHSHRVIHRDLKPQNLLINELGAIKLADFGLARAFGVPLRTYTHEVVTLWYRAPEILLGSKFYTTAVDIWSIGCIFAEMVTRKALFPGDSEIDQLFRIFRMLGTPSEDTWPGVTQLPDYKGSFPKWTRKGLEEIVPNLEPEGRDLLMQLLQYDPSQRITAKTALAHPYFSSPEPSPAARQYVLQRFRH

DCAMKL2 = molecular target: T3, DCAMKL2 (Homo sapiens, UniProt Q8N568); conditions: read-out: %Inh DCAMKL2
T3 sequence (Q8N568 1-766): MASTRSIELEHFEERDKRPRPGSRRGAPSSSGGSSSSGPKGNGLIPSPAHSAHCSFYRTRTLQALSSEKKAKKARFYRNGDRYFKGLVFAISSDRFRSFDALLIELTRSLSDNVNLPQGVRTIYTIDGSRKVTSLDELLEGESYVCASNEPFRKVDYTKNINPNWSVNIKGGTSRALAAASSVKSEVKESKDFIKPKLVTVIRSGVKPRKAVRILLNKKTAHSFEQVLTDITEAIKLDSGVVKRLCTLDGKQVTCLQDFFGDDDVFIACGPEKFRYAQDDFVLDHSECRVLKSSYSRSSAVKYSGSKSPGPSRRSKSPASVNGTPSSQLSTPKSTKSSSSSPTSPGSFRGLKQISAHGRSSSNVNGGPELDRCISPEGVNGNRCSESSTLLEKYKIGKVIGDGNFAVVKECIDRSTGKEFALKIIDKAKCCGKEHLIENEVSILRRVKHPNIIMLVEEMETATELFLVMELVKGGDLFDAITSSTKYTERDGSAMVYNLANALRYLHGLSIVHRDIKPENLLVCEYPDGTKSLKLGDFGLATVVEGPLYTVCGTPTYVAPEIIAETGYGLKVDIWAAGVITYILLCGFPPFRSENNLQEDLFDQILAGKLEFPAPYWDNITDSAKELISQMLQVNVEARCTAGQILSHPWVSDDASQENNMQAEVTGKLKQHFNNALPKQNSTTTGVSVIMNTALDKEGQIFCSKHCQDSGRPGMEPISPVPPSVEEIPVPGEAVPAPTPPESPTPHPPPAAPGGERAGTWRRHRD

CIT = CIT (Homo sapiens, UniProt O14578); conditions: read-out: %Inh CIT
Chain of CIT (O14578 whole entry): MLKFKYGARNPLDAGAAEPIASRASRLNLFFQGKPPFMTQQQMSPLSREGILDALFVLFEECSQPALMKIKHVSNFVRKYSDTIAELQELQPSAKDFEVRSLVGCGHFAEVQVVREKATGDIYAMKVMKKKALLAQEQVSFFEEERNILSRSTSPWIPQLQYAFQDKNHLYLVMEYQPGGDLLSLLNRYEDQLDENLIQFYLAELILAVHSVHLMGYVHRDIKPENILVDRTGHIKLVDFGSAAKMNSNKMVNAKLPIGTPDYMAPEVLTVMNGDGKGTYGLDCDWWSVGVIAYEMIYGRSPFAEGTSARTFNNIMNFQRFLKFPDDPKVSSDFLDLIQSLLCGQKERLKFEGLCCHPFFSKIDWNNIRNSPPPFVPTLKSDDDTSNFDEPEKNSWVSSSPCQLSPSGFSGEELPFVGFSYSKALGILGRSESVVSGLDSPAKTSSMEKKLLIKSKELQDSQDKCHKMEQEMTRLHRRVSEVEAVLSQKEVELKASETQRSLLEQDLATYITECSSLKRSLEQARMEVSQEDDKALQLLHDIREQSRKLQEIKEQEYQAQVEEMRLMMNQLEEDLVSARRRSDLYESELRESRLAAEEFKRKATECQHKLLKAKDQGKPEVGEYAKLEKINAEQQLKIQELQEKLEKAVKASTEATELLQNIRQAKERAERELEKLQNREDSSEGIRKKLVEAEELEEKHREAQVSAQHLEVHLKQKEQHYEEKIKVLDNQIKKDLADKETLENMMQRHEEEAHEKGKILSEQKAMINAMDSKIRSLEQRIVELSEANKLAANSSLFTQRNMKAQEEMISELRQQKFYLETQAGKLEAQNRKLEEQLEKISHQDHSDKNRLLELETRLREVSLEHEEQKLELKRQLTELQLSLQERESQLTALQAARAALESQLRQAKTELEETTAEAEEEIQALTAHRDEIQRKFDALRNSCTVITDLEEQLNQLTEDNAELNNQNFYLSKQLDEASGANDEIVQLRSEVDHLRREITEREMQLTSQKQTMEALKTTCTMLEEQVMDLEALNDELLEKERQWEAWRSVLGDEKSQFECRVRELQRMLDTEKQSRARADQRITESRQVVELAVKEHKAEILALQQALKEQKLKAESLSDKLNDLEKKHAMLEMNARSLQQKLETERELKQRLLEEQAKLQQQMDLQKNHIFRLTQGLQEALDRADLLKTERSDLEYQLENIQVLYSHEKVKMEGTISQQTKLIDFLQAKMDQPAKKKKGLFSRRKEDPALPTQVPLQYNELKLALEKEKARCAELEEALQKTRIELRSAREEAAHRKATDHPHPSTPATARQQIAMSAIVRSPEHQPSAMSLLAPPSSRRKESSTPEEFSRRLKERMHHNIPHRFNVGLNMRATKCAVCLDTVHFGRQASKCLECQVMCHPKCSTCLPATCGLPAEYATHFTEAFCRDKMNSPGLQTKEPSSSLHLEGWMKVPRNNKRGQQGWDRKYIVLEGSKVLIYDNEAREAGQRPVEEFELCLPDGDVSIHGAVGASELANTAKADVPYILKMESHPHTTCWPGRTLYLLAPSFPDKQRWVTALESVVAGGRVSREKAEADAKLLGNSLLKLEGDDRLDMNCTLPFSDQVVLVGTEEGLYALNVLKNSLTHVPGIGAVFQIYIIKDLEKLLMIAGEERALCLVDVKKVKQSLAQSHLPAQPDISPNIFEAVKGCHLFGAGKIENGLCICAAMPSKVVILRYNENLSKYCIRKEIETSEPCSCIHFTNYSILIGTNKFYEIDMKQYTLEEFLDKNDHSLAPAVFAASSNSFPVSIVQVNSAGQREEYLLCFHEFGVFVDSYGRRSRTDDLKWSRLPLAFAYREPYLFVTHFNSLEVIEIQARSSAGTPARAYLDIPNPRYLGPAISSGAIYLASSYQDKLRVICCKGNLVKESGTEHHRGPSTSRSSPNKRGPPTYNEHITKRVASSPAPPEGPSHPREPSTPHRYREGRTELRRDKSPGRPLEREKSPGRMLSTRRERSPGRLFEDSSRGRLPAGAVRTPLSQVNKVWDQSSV

EPHA2 = EPHA2 (Homo sapiens, UniProt P29317); conditions: read-out: %Inh EPHA2
Chain of EPHA2 (P29317 24-976): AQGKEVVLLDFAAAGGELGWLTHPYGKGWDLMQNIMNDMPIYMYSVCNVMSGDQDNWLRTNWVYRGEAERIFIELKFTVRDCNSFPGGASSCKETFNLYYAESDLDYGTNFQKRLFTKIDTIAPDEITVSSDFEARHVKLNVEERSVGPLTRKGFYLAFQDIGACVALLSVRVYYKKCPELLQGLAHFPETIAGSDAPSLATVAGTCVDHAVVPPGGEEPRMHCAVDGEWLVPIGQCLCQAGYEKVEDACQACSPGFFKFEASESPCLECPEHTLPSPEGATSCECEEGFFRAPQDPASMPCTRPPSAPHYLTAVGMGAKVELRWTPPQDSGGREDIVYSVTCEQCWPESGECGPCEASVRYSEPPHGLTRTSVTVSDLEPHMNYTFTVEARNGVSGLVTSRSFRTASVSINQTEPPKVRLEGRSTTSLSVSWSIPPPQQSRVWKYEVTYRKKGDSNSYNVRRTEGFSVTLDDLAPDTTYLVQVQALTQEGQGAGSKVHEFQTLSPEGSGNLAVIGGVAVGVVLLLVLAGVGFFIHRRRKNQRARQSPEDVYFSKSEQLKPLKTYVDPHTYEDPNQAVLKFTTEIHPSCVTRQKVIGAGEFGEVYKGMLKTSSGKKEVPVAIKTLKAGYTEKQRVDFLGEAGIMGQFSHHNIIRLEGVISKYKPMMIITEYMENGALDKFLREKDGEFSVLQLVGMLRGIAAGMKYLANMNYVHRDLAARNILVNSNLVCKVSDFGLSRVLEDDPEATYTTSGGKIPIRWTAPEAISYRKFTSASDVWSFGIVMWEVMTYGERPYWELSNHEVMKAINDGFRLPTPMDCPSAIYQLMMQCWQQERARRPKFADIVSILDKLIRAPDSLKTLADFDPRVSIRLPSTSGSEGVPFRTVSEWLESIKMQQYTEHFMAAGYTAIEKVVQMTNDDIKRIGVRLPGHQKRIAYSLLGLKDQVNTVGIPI

CLK3 = CLK3 (Homo sapiens, UniProt P49761); conditions: read-out: %Inh CLK3
Chain of CLK3 (P49761 whole entry): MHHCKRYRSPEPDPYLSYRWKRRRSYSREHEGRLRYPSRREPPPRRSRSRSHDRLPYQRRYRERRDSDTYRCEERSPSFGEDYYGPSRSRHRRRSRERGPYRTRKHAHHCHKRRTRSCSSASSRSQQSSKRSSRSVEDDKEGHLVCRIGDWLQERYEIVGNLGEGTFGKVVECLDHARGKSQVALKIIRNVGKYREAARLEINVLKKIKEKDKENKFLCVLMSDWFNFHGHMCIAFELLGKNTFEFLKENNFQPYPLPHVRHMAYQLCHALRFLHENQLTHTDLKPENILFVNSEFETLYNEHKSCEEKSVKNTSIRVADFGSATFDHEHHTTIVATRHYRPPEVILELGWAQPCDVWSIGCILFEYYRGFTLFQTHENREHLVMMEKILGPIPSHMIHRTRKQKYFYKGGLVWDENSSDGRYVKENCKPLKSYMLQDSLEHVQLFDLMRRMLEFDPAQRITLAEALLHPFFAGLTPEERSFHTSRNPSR

[1] = molecular target: JAK1(JH2domain-pseudokinase) (Homo sapiens, UniProt P23458); conditions: read-out: %Inh JAK1(JH2domain-pseudokinase)
Chain of JAK1(JH2domain-pseudokinase) (P23458 578-855 limits assumed): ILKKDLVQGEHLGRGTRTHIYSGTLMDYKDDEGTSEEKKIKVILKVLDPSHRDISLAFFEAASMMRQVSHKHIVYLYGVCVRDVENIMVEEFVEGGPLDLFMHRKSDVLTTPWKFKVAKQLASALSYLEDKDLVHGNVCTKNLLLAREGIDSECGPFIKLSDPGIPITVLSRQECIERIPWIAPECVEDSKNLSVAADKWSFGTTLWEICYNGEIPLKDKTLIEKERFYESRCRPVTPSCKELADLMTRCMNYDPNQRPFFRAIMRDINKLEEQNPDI

Structure (SMILES)	inhibition at 1 µM (DCAMKL1) [%]	inhibition at 1 µM (EPHA4) [%]	inhibition at 1 µM (ABL1-phosphorylated) [%]	inhibition at 1 µM (CSF1R-autoinhibited) [%]	inhibition at 1 µM (CDK3) [%]	inhibition at 1 µM (DCAMKL2) [%]	inhibition at 1 µM (CIT) [%]	inhibition at 1 µM (EPHA2) [%]	inhibition at 1 µM (CLK3) [%]	inhibition at 1 µM [1] [%]
Cn1cc(-c2cnc(N)c3c(-c4ccc5c(c4)CCN5C(=O)Cc4ccccc4)csc23)cn1 [UNC10225012A]	0	11	89	39	1	0	0	0	0	0
O=c1cc(N2CCOCC2)nc2n(Cc3cccc(Cl)c3Cl)c(C3CC3)nn12 [UNC10225469A]	0	11	20	0	5	7	0	0	14	3
COc1cccc(OC)c1C(=O)Nc1cccc(-c2nn3ccccc3c2-c2ccnc(Nc3cccc(F)c3)n2)c1 [UNC10225310A]	16	0	18	4	0	0	36	11	0	4
CS(=O)(=O)Cc1ccc(Nc2nccc(-c3c(-c4cccc(NC(=O)C5CCCCC5)c4)nn4ncccc34)n2)cc1 [UNC10225159A]	0	14	15	35	0	15	10	51	24	0
Cc1ccc(NC(=O)Nc2cccc(C(F)(F)F)c2)cc1 [UNC10225187A]	0	6	23	0	0	0	29	0	0	12
